# Reference: patent publication EP0658109B1, “METALLO PORPHYRIN COMPOSITIONS” (priority 1992, dated 1994)
# Where two headings read alike, the source gives them in different places.
# Legend:
# [1] = MTT cell viability assay (cytotoxicity); format: cell-based, monkey; conditions: monkey, cytotoxicity towards COS A6 cells cultured in the absence of FCS, read-out: LD50 (the source's name)
# Text: (§1) Ex vivo Assay of HIV-1 Polyprotein Processing. COS A6 cells were the result of stable integration of the vector HIV-gpt by transfection of COS-7 cells. This SV40-based vector consists of the HIV-1 HXB2 strain proviral genome where the gp160 sequences were replaced by the […] (gpt) gene. Following transfection, the cells were placed under selection for gpt expression by adding mycophenolic acid to the media. Surviving cells were later cloned and assayed for expression of gag p24 protein by ELISA and Western blots of culture supernatants and whole cell extracts. The cloned COS A6 cell line was maintained in DME H21 supplemented with 10% dialyzed and refiltered fetal calf serum (FCS), antibiotics (100 U/ml penicillin G, 100 µg/ml streptomycin sulfate), hypoxanthine (14 µg/ml), xanthine (250 µg/ml), and mycophenolic acid (25 µg/ml), at 37°C and 5% CO2.
# (§2) MTT Cell Viability Assay. Cell survival was assessed by a quantitative colorimetric assay. The tetrazolium salt 3-(4,5-dimethylthiazol-2-yl)2,5-diphenyltetrazolium bromide (MTT) is cleaved by dehydrogenases in active mitochondria of living cells to yield a change in color from yellow to purple. To obtain the LD50 values for each compound, the concentration was determined at which the absorbance at 550-570 nm was half of that for the untreated cells. Compounds were tested in duplicate, in serial dilutions generally ranging from 10-250 µM concentrations in the presence of 0-0.1% DMSO. MTT assays were carried out in both the presence and absence of 10% FCS.
# (§3) Cytotoxicity of compounds (LD50) and their ability to inhibit capsid protein processing ex vivo during 4 hour incubations (IC50) were studied. A plasmid which encodes the HIV-1 proviral genome, with the exception of the […] envelope protein, was stably introduced into the monkey cell line COS 7. Cloned progeny, COS A6 cells, constitutively release viral capsids into the media. Inhibition of polyprotein processing was determined by measuring the amount of p24 present in the viral capsid samples with an ELISA assay. The decrease in the amount of detectable p24 antigen correlated with a specific inhibition of HIV PR activity, judged by the accumulation of capsid precursor in conjunction with a disappearance of the p24 mature protein band in Western blots. The MTT stain assay was used to obtain LD50 values for all the compounds tested.
# SIV protease (SIV PR) = molecular target: T1, SIV protease (SIV PR) (Simian immunodeficiency virus, UniProt P05896); assay: SIV protease inhibition, discontinuous HPLC assay of decapeptide cleavage; format: biochemical; conditions: absence of DMSO
# T1 construct: SIV protease (SIV PR) were expressed and purified from strain X90; made in house; host or cells: strain X90 (E. coli by own knowledge)
# T1 sequence (P05896 501-596): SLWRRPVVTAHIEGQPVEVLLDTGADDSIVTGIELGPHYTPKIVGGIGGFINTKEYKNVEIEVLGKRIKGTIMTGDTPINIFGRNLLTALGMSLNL
# Procedure: (§4) Recombinant Protein Preparation. Recombinant HIV-1 protease (HIV-1 PR) was expressed and purified from E. coli strain D1210 using the pSOD/PR179 vector. Recombinant HIV-2 protease (HIV-2 PR) and SIV protease (SIV PR) were expressed and purified from strain X90 using pTacTac vectors.
# (§5) Enzyme Assays. HIV-1, HIV-2, and SIV PRs were assayed against the decapeptide corresponding to the HIV-1 PR C-terminal autoprocessing site, by means of a discontinuous HPLC assay. Recombinant human renin and porcine pepsin were obtained and assayed using standard conditions. Bovine cathepsin D and its chromogenic substrate were purchased from Sigma. The enzyme was assayed by standard methods.
# Stock solutions of the porphyrin derivatives (1 µ M-10mM) in 100% DMSO were used in IC50 determinations. Since many of the derivatives were insoluble in buffer alone, including the free acid forms of the carborane compounds, DMSO was used to increase solubility and allow a comparison of the binding affinity. Compounds were added to buffer solutions containing additional DMSO to give a final concentration of 5%. Control reactions contained 5% DMSO only. Enzymes were preincubated with inhibitor for 1 minute at 25°C, followed by addition of substrate to initiate the reaction. As earlier noted, assays were also carried out in the absence of DMSO, when possible. […]
# [2] = molecular target: T2, Recombinant HIV-1 protease (HIV-1 PR) (Human immunodeficiency virus type 1 group M subtype B, UniProt P03369); format: biochemical
# T2 construct: Recombinant HIV-1 protease (HIV-1 PR) was expressed and purified; made in house; host or cells: E. coli strain D1210
# Procedure: as §4, §5
# Stock solutions of the porphyrin derivatives (1 µ M-10mM) in 100% DMSO were used in IC50 determinations. […] Control reactions contained 5% DMSO only. Enzymes were preincubated with inhibitor for 1 minute at 25°C, followed by addition of substrate to initiate the reaction. As earlier noted, assays were also carried out in the absence of DMSO, when possible.
# Figure 1 is a Dixon plot of inventive embodiment 5 (which is a representative example of the other embodiments) in inhibition of HIV-1 protease, where purified HIV-1 protease (6 x 10^-1 mg/ml) was incubated with the inventive inhibitor in 50 mM sodium acetate buffer, pH 5.5, containing 1 mM dithiothreitol, 1 mM EDTA, and 1 M NaCl. […] The assay solutions were incubated for 30-45 minutes at 37° and enzyme activity was determined by quantitation of the hydrolysis products on HPLC.
# V79 CHO cells = assay: Colony survival (cytotoxicity); format: cell-based; conditions: in the presence of FCS, read-out: LD50 (the source's name)
# COS A6 cells = assay: MTT cell viability assay (cytotoxicity); format: cell-based, monkey; conditions: cytotoxicity towards COS A6 cells cultured in the absence of FCS, read-out: LD50 (the source's name)
# Text: as §1, §2, §3
# C6 glioma = assay: Colony survival (cytotoxicity); format: cell-based; conditions: in the presence of FCS, read-out: LD50 (the source's name)
# [3] = molecular target: T3, Recombinant HIV-2 protease (HIV-2 PR) (Human immunodeficiency virus type 2 subtype A, UniProt P04584); assay: HIV-2 protease inhibition, discontinuous HPLC assay of decapeptide cleavage; format: biochemical
# T3 construct: Recombinant HIV-2 protease (HIV-2 PR) and SIV protease (SIV PR) were expressed and purified; made in house; host or cells: strain X90 (E. coli by own knowledge)
# T3 sequence (P04584 514-612 limits assumed): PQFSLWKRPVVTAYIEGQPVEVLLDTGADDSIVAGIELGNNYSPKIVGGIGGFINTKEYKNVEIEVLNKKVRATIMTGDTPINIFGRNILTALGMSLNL
# Procedure: as §4, §5
# (§6) Stock solutions of the porphyrin derivatives (1 µ M-10mM) in 100% DMSO were used in IC50 determinations. Since many of the derivatives were insoluble in buffer alone, including the free acid forms of the carborane compounds, DMSO was used to increase solubility and allow a comparison of the binding affinity. Compounds were added to buffer solutions containing additional DMSO to give a final concentration of 5%. Control reactions contained 5% DMSO only. Enzymes were preincubated with inhibitor for 1 minute at 25°C, followed by addition of substrate to initiate the reaction. As earlier noted, assays were also carried out in the absence of DMSO, when possible. Dipotassium salts of several of the inhibitors were soluble in aqueous solution and were assayed in the absence of DMSO for K1 and IC50 determinations.
# Recombinant human renin = molecular target: T4, Recombinant human renin (Homo sapiens, UniProt P00797); assay: Renin inhibition, standard conditions; format: biochemical; conditions: absence of DMSO
# T4 sequence (P00797 67-406): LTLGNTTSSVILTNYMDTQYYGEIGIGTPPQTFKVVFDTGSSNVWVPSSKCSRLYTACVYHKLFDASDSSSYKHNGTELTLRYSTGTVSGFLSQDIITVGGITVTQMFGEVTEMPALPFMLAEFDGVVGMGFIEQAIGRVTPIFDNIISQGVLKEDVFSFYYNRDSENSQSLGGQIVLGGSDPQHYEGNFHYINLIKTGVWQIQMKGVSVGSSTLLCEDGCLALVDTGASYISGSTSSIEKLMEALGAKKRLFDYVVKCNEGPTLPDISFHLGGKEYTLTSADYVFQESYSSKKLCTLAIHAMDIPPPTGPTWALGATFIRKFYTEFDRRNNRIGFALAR
# Procedure: as §5, §6
# porcine pepsin = porcine pepsin (Sus scrofa, UniProt P00791); assay: Pepsin inhibition, standard conditions; format: biochemical; conditions: absence of DMSO
# porcine pepsin, sequence (P00791 60-385): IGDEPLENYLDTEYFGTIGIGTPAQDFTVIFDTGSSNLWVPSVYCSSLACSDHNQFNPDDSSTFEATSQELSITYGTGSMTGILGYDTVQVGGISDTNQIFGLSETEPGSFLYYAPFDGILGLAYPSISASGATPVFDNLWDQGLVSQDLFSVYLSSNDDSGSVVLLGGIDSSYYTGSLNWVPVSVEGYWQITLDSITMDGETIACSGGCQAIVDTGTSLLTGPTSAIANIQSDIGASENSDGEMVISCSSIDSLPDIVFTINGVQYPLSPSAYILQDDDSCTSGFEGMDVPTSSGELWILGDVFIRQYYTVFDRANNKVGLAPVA
# Procedure: as §5, §6
# Bovine cathepsin D = molecular target: T5, Bovine cathepsin D (Bos taurus, UniProt P80209); assay: Cathepsin D inhibition, chromogenic substrate; format: biochemical; conditions: absence of DMSO
# T5 construct: purchased Sigma
# T5 sequence (P80209 45-390): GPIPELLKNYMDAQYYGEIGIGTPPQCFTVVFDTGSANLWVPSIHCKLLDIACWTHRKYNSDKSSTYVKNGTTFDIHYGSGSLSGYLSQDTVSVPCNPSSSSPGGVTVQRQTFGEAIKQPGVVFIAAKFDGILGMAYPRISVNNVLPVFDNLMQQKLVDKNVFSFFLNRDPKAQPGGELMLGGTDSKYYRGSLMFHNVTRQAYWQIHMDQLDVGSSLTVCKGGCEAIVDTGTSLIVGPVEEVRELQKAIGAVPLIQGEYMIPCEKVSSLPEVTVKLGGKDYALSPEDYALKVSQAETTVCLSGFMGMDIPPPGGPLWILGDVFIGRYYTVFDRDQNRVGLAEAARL
# Procedure: as §5, §6
# mice = assay: Tolerance in mice; format: in vivo; conditions: doses as high as 200 mg/kg
compound,measurement,setting,value
CC1=C(C(COC(=O)c2ccc(N(C)C)cc2)OC(=O)c2ccc(N(C)C)cc2)c2cc3nc(cc4[nH]c(cc5[nH]c(cc1n2)c(C)c5CCC(=O)O)c(CCC(=O)O)c4C)C(C(COC(=O)c1ccc(N(C)C)cc1)OC(=O)c1ccc(N(C)C)cc1)=C3C (centres unmarked) [Comparative Embodiment 9],CC50,[1],> 250 µM
CC1=C(C(COC(=O)c2ccccc2)OC(=O)c2ccccc2)c2cc3nc(cc4[nH]c(cc5[nH]c(cc1n2)c(C)c5CCC(=O)O)c(CCC(=O)O)c4C)C(C(COC(=O)c1ccccc1)OC(=O)c1ccccc1)=C3C (centres unmarked) [Comparative Embodiment 10],CC50,[1],250 µM
CC1=C(C(COC(=O)c2ccc3ccccc3c2)OC(=O)c2ccc3ccccc3c2)c2cc3nc(cc4[nH]c(cc5[nH]c(cc1n2)c(C)c5CCC(=O)O)c(CCC(=O)O)c4C)C(C(COC(=O)c1ccc2ccccc2c1)OC(=O)c1ccc2ccccc2c1)=C3C (centres unmarked) [Comparative Embodiment 11],CC50,[1],250 µM
CC1=C(C(O)CO)c2cc3nc(cc4[nH]c(cc5[nH]c(cc1n2)c(C)c5CCC(=O)O)c(CCC(=O)O)c4C)C(C(O)CO)=C3C (centres unmarked) [Comparative Embodiment 12],CC50,[1],250 µM
"tetra-carborane carboxylate ester of 2,4-Di(α,β-dihydroxyethyl)deuteroporphyrin (IX) [Inventive Embodiment 1]",IC50,SIV protease (SIV PR),0.25 µM
same,IC50,"[2]; absence of DMSO, dipotassium salts in aqueous solution, read-out: IC50 HIV-1 PR",0.05 µM
same,fold more effective for HIV-1 PR than for HIV-2 and SIV PRs,"[2]; from Table 4, absence of DMSO",approximately 5 fold
same,fold more inhibitory for HIV-1 PR compared to cellular aspartyl proteases,"[2]; from Table 4, absence of DMSO, listed as Inventive embodiment 1",at least 60 fold
same,fold more inhibitory for HIV-1 PR compared to cellular aspartyl proteases,"[2]; from Table 4, absence of DMSO, listed as inventive embodiment 1",at least a sixty-fold
same,IC50,"[2]; in the presence of 5% DMSO, read-out: IC50 in vitro HIV-1",0.185 µM
same,decrease of inhibition of HIV-1 PR by fetal calf serum,"[2]; incubation with 0.1% FCS, 50 nM inhibitor",more than 50%
same,IC50,"[2]; matches the series without DMSO, read-out: IC50 HIV-1 protease",0.05 µM
same,CC50,V79 CHO cells,≥ 150 µM
same,CC50,COS A6 cells,25 µM
same,concentrations readily prepared in water (water solubility),,100 to 200 mg/mL
same,CC50,C6 glioma,100 to 125 µM
same,IC50,"[3]; absence of DMSO, dipotassium salts in aqueous solution, read-out: IC50 HIV-2 PR",0.23 µM
same,IC50,"[3]; in the presence of 5% DMSO, read-out: IC50 in vitro HIV-2",0.7 µM
same,IC50,"[3]; matches the series without DMSO, read-out: IC50 HIV-2 protease",0.23 µM
same,IC50,Recombinant human renin,3 µM
same,IC50,porcine pepsin,4 µM
same,IC50,Bovine cathepsin D,10 µM
same,tolerance in mice (morbidity or mortality),mice,no apparent signs of morbidity or mortality
